{"source": "ChEMBL document CHEMBL4138052", "about": "“Synthesis, characterization, solubilization, cytotoxicity and antioxidant activity of aminomethylated dihydroquercetin” (Medchemcomm, 2017)", "key": {"HEK293 [1]": {"system": "HEK293", "assay": "Cytotoxicity in HEK293 cells assessed as reduction in cell survival incubated for 48 hrs by MTT assay", "format": "cell-based", "settings": "Homo sapiens, HEK293, 48 h"}, "[2]": {"assay": "Antioxidant activity assessed as ABTS radical scavenging activity incubated for 6 mins by spectrophotometry", "format": "functional"}, "[3]": {"assay": "Reducing power of the compound assessed as reducing Fe3+ power at 0.15 to 1.2 mM using potassium ferricyanide in pH 6.6 KH2PO4-K2HPO4 buffer by UV spectrophotometry", "format": "physicochemical", "settings": "pH 6.6, 1200 µM"}, "[4]": {"assay": "Thermal stability of the compound assessed as drug degradation by measuring compound weight loss at 30 to 100 degC", "format": "physicochemical", "settings": "read-out: Drug degradation"}, "[5]": {"assay": "Thermal stability of the compound assessed as drug degradation by measuring compound weight loss at 247 to 600 degC", "format": "physicochemical", "settings": "read-out: Drug degradation"}, "[6]": {"assay": "Solubility in water at pH 5.7 under nitrogen and sheltered from light condition incubated for 1 hr", "format": "physicochemical"}, "[7]": {"assay": "Dissolution of the compound at 0.12 mg measured at 38 mins by UV spectrophotometry", "format": "physicochemical"}, "[8]": {"assay": "Solubility in PBS using micronized compound measured at 60 mins", "format": "physicochemical"}, "[9]": {"assay": "Safety index, ratio of EC50 for aristolochic acid to EC50 for test compound for cytotoxicity in HEK293 cells assessed as reduction in cell survival incubated for 48 hrs by MTT assay", "format": "cell-based", "settings": "human, read-out: Ratio EC50"}, "HEK293 [10]": {"system": "HEK293", "assay": "Stimulation of cell growth in HEK293 cells assessed as increase in cell survival at 2 to 360 uM incubated for 48 hrs by MTT assay", "format": "functional, cell-based", "settings": "Homo sapiens"}, "HEK293 [11]": {"system": "HEK293", "assay": "Stimulation of cell growth in HEK293 cells assessed as cell growth rate at 200 uM incubated for 48 hrs by MTT assay", "format": "functional", "settings": "Homo sapiens, HEK293, 48 h; read-out: Activity"}, "HeLa": {"system": "HeLa", "assay": "Cytotoxicity in human HeLa cells assessed as reduction in cell survival incubated for 48 hrs by MTT assay", "format": "functional, cell-based"}, "[12]": {"assay": "Antioxidant activity assessed as DPPH radical scavenging activity at 0.03 to 0.06 mM incubated for 30 mins", "format": "functional"}, "[13]": {"assay": "Antioxidant activity assessed as DPPH radical scavenging activity at 0.09 mM incubated for 30 mins", "format": "functional"}, "[14]": {"assay": "Antioxidant activity assessed as DPPH radical scavenging activity using micronized compound", "format": "functional"}, "[15]": {"assay": "Antioxidant activity assessed as ABTS radical scavenging activity at 0.1 mM incubated for 6 mins by spectrophotometry", "format": "functional"}, "[16]": {"assay": "Thermal stability of the compound assessed as drug degradation by measuring compound weight loss at 217 to 600 degC", "format": "physicochemical", "settings": "read-out: Drug degradation"}, "[17]": {"assay": "Ratio of solubility of DHQ to solubility of test compound in water at pH 5.7 under nitrogen and sheltered from light condition incubated for 1 hr", "format": "physicochemical", "settings": "buffer, pH 5.7, 1 h"}, "[18]": {"assay": "Dissolution of the compound at 0.12 mg measured at 360 mins by UV spectrophotometry", "format": "physicochemical", "settings": "6 h"}, "HEK293 [19]": {"system": "HEK293", "assay": "Potency index, ratio of cell growth stimulation activity of DHQ to cell growth stimulation activity of test compound for stimulation of cell growth in HEK293 cells assessed as cell growth rate at 200 uM incubated for 48 hrs by MTT assay", "format": "functional, Homo sapiens"}}, "note": "pEC50, pIC50: −log10 of the molar value. Active and inactive are the calls of the source. No cut-off for these calls is given here.", "data": [{"smiles": "COc1cccc2c1cc([N+](=O)[O-])c1c(C(=O)O)cc3c(c12)OCO3", "note": "[ARISTOLOCHIC ACID]", "values": [{"measurement": "pEC50", "setting": "HEK293 [1]", "result": 3.93}]}, {"smiles": "O=C1O[C@H]([C@@H](O)CO)C(O)=C1O", "note": "[ASCORBIC ACID]", "values": [{"measurement": "pIC50", "setting": "[2]", "result": 4.38}, {"measurement": "Activity", "setting": "[3]", "result": "Dose-dependent effect"}]}, {"smiles": "O=C1c2c(O)cc(O)cc2O[C@H](c2ccc(O)c(O)c2)[C@H]1O", "note": "[(+)-TAXIFOLIN]", "values": [{"measurement": "degraded", "setting": "[4]", "result": 10.1, "unit": "%"}, {"measurement": "degraded", "setting": "[5]", "result": 43.4, "unit": "%"}, {"measurement": "solubility at 1 h", "setting": "[6]", "result": 1.2, "unit": "mg/mL"}, {"measurement": "Activity", "setting": "[7]", "result": 13.8, "unit": "%"}, {"measurement": "solubility at 1 h", "setting": "[8]", "result": 20, "unit": "µg/mL"}, {"measurement": "pEC50", "setting": "HEK293 [1]", "result": 3.17}, {"measurement": "selectivity ratio at 48 h", "setting": "[9]", "result": 5.6}, {"measurement": "Activity", "setting": "HEK293 [10]", "result": "Active"}, {"measurement": "growth at 200 µM", "setting": "HEK293 [11]", "result": 22.6, "unit": "%"}, {"measurement": "Activity", "setting": "HeLa", "result": "Dose-dependent effect"}, {"measurement": "pEC50", "setting": "HeLa", "result": 3.90}, {"measurement": "Activity", "setting": "[12]", "result": "Active"}, {"measurement": "Activity", "setting": "[13]", "result": 88.7, "unit": "%"}, {"measurement": "IC50", "setting": "[14]", "result": 0.5, "unit": "mg/mL"}, {"measurement": "Activity", "setting": "[15]", "result": 84.9, "unit": "%"}, {"measurement": "pIC50", "setting": "[2]", "result": 4.32}, {"measurement": "Activity", "setting": "[3]", "result": "Dose-dependent effect"}]}, {"smiles": "O=C(O)C1CCCN1Cc1c(O)c(CN2CCCC2C(=O)O)c2c(c1O)C(=O)[C@@H](O)[C@H](c1ccc(O)c(O)c1)O2", "note": "(some centres undefined)", "values": [{"measurement": "degraded", "setting": "[16]", "result": 64.8, "unit": "%"}, {"measurement": "solubility at 1 h", "setting": "[6]", "result": 19.5, "unit": "mg/mL"}, {"measurement": "Ratio", "setting": "[17]", "result": 16}, {"measurement": "Activity", "setting": "[7]", "result": 87.1, "unit": "%"}, {"measurement": "Activity", "setting": "[18]", "result": 83.78, "unit": "%"}, {"measurement": "solubility at 1 h", "setting": "[8]", "result": 210, "unit": "µg/mL"}, {"measurement": "pEC50", "setting": "HEK293 [1]", "result": 3.09}, {"measurement": "selectivity ratio at 48 h", "setting": "[9]", "result": 7}, {"measurement": "Activity", "setting": "HEK293 [10]", "result": "Active"}, {"measurement": "growth at 200 µM", "setting": "HEK293 [11]", "result": 54.5, "unit": "%"}, {"measurement": "Ratio", "setting": "HEK293 [19]", "result": 2.5}, {"measurement": "Activity", "setting": "HeLa", "result": "Dose-dependent effect"}, {"measurement": "pEC50", "setting": "HeLa", "result": 3.86}, {"measurement": "Activity", "setting": "[12]", "result": "Active"}, {"measurement": "Activity", "setting": "[13]", "result": 85.7, "unit": "%"}, {"measurement": "IC50", "setting": "[14]", "result": 0.022, "unit": "mg/mL"}, {"measurement": "Activity", "setting": "[15]", "result": 98.3, "unit": "%"}, {"measurement": "pIC50", "setting": "[2]", "result": 4.38}, {"measurement": "Activity", "setting": "[3]", "result": "Dose-dependent effect"}]}]}
